Results from the supplement of paper PMC10307832.

Experiments:
Assay in all cases: relative viability (nuclei count vs DMSO), 5 days (fraction); higher = more cells survive
[1] = compound: C1COCCN1C2=NC(=NC3=C2OC4=C3C=CC=N4)C5=CC(=CC=C5)NC(=O)C6=CN=C(C=C6)N + N=C(N)NC(=N)NCCc1ccccc1 [Phenformin] (partner 250 µM)
In short: (§1)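 Lung cancer cell lines were pin-tool dosed in 1536-well plates on the day after seeding, with either a lone drug or a fixed anchor-drug dose plus five library-drug doses (not always all listed) in √10 steps. Nuclei were counted on 4× images after 5 days. Relative viability is the ratio of treated-well to vehicle-well nuclei counts, with each value a median of duplicate plates.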

[2] = compound: C1COCCN1C2=NC(=NC3=C2OC4=C3C=CC=N4)C5=CC(=CC=C5)NC(=O)C6=CN=C(C=C6)N + C[C@@H](Oc1cc(-c2cnn(C3CCNCC3)c2)cnc1N)c1c(Cl)ccc(F)c1Cl [Crizotinib] (partner 1 µM)
In short: as §1

Entinostat + Bortezomib = compound: Nc1ccccc1NC(=O)c1ccc(CNC(=O)OCc2cccnc2)cc1 [Entinostat] + CC(C)C[C@H](NC(=O)[C@H](Cc1ccccc1)NC(=O)c1cnccn1)B(O)O [Bortezomib] (partner 0.002 µM)
In short: as §1

SGI-1776 + Dasatinib = compound: CN1CCC(CNc2ccc3ncc(-c4cccc(OC(F)(F)F)c4)n3n2)CC1 [SGI-1776] + Cc1nc(Nc2ncc(C(=O)Nc3c(C)cccc3Cl)s2)cc(N2CCN(CCO)CC2)n1 [Dasatinib] (partner 0.075 µM)
In short: as §1

| Cell Line | relative viability ([1]; first compound 0.02 µM) | relative viability ([1]; first compound 0.06325 µM) | relative viability ([1]; first compound 0.2 µM) | relative viability ([1]; first compound 0.6325 µM) | relative viability ([1]; first compound 2 µM) | relative viability ([2]; first compound 0.02 µM) | relative viability ([2]; first compound 0.06325 µM) | relative viability ([2]; first compound 0.2 µM) | relative viability ([2]; first compound 0.6325 µM) | relative viability ([2]; first compound 2 µM) | relative viability (Entinostat + Bortezomib; first compound 0.02 µM) | relative viability (Entinostat + Bortezomib; first compound 0.06325 µM) | relative viability (Entinostat + Bortezomib; first compound 0.2 µM) | relative viability (Entinostat + Bortezomib; first compound 0.6325 µM) | relative viability (Entinostat + Bortezomib; first compound 2 µM) | relative viability (SGI-1776 + Dasatinib; first compound 0.08 µM) | relative viability (SGI-1776 + Dasatinib; first compound 0.8 µM) | relative viability (SGI-1776 + Dasatinib; first compound 2.53 µM) | relative viability (SGI-1776 + Dasatinib; first compound 8 µM) |
| --- | --- | --- | --- | --- | --- | --- | --- | --- | --- | --- | --- | --- | --- | --- | --- | --- | --- | --- | --- |
| NCI-H1755 | 0.606 | 0.652 | 0.644 | 0.336 | 0.469 | 0.969 | 0.978 | 0.811 | 0.773 | 0.34 | 0.932 | 0.956 | 0.9 | 0.534 | 0.321 | 0.454 | 0.437 | 0.351 | 0.287 |
| NCI-H1792 | 0.245 | 0.471 | 0.211 | 0.218 | 0.179 | 1.2 | 0.946 | 1.01 | 0.767 | 0.382 | 0.952 | 0.992 | 1.03 | 0.802 | 0.606 | 0.781 | 0.742 | 0.637 | 0.491 |
| NCI-H1915 | 0.338 | 0.383 | 0.397 | 0.392 | 0.302 | 0.887 | 1 | 0.983 | 0.907 | 0.494 | 1.05 | 0.959 | 0.998 | 0.644 | 0.638 | 0.315 | 0.273 | 0.29 | 0.261 |
| NCI-H1975 | 0.394 | 0.416 | 0.388 | 0.37 | 0.243 | 0.993 | 1.15 | 0.929 | 1.07 | 0.418 | 0.355 | 0.309 | 0.271 | 0.182 | 0.163 | 0.385 | 0.369 | 0.253 | 0.232 |
| NCI-H1993 | 0.483 | 0.498 | 0.501 | 0.513 | 0.522 | 0.821 | 0.856 | 0.805 | 0.899 | 0.789 | 1.1 | 1.16 | 1 | 0.723 | 0.543 | 0.584 | 0.651 | 0.55 | 0.528 |
| NCI-H2009 | 0.468 | 0.485 | 0.449 | 0.371 | 0.242 | 0.984 | 1.11 | 0.927 | 1.07 | 0.72 | 1.03 | 1.05 | 0.912 | 0.814 | 0.497 | 0.373 | 0.291 | 0.231 | 0.15 |
| NCI-H2023 | 0.424 | 0.457 | 0.346 | 0.32 | 0.156 | 0.669 | 0.711 | 0.49 | 0.56 | 0.257 | 0.859 | 0.85 | 0.411 | 0.166 | 0.105 | 0.637 | 0.523 | 0.432 | 0.254 |
| NCI-H2085 | 0.686 | 0.753 | 0.678 | 0.629 | 0.398 | 0.971 | 0.947 | 0.817 | 0.887 | 0.522 | 1.03 | 1.12 | 1.04 | 0.683 | 0.604 | 0.248 | 0.264 | 0.243 | 0.201 |
| NCI-H2087 | 0.515 | 0.595 | 0.495 | 0.447 | 0.31 | 0.979 | 0.936 | 0.925 | 0.892 | 0.531 | 0.883 | 0.837 | 0.761 | 0.425 | 0.274 | 0.782 | 1.09 | 0.826 | 0.595 |
